Values quoted from earlier work as cited in US20130345257A1, “COMPOSITION FOR LUPUS NEPHRITIS AND METHODS OF MAKING AND USING THE SAME” (The Regents of the University of California, priority 2012, published 2013).

Key:
murine SLE model = conditions: mouse, in vivo; cited from earlier work
human lupus = conditions: phase 1b trial; cited from earlier work
[1] = pulled out of a clinical trial; cited from earlier work

| SMILES | Efficacy in murine SLE model (murine SLE model) | Adverse events profile (human lupus) | Toxicity in clinical trial [1] |
| --- | --- | --- | --- |
| CCc1cccc2c1c(O)c(C(=O)N(CC)c1ccccc1)c(=O)n2C [paquinimod] | effective | favorable adverse events profile |  |
| CN(C(=O)c1c(O)c2ccccc2n(C)c1=O)c1ccccc1 [roquinimex] |  |  | serious cardiovascular toxicities |
